Experimental data published in patent publication US11420922B2, “Hydroxylated tropolone inhibitors of nucleotidyl transferases in herpesvirus and Hepatitis B and uses therefor” (Saint Louis University, priority 2015, dated 2022).
Entries after “also recorded” stand apart in the source; their conditions may differ.

How the values were obtained:
HSV-1 = test: Anti-HSV-1 replication assay in Vero cells, titers by plaque assay; assay type: cell-based, herpes simplex virus 1; conditions: Human alphaherpesvirus 1, Vero, 24 h
Outline: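 Vero monolayers infected with clinical HSV-1 or HSV-2 isolates at MOI 0.1 with compound present (50 and 5 μM final), 1 h at 37° C, then compound in DMEM for another 23 h. Yield titered by plaque assay on Vero cells; EC50 by nonlinear fit of serial dilutions starting at 50 μM, DMSO controls.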

[1] = Cytotoxicity reported with the HBV assay (Table 4); assay type: cell-based; conditions: human, hepatoma cells; read-out: CC50 (HBV assay table)
Outline: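 Cells exposed 24 h to compounds at 0.78–100 μM in 1% DMSO, under the same conditions as the viral replication assays.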

[2] = Mouse liver microsome assay; assay type: in vitro ADME; conditions: 1 μM in mouse liver microsomes
Outline: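 Mouse liver microsomes at 0.25 μM P450 final in 0.1 M potassium phosphate with 3.3 mM MgCl and 1 μM compound, prewarmed 5 min at 37 °C. Reaction started with NADPH (1.2 mM final); aliquots at 0, 5, 10, 20 and 30 min quenched in cold acetonitrile with EDTA or EGTA, analysed by LC/MS/MS.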

HSV-2 [3] = test: Combination of ACV and compound 118 against HSV-2 in Vero cells (plaque assay, qPCR, Chou-Talalay); assay type: cell-based, herpes simplex virus 2; conditions: constant ratios, MOI 0.1, 24 h, FIGS. 8A-8C
Experimental: After 24 h, the cultures were collected and divided into two aliquots. […] The area below the lines indicates synergism, and the area above indicates antagonism.

HSV = test: Anti-HSV SAR summary, HSV type not separated; assay type: cell-based, herpes simplex virus; conditions: grouped by activity at 50, 5 and 0.5 μM
Outline: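 Confluent monolayers were infected with HSV-1 or HSV-2 at MOI 0.1 in the presence of compound at 50 and 5 µM for 1 h at 37 °C. Compound was then re-added in DMEM/2% newborn calf serum for 23 h more. Yield was titred by plaque assay on Vero cells, with DMSO controls. EC50 values came from serial dilutions starting at 50 µM, fitted by non-linear regression.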

HSV-2 [4] = test: Anti-HSV-2 replication assay in Vero cells, titers by plaque assay; assay type: cell-based, herpes simplex virus 2
[5] = Quantitative Vero cell toxicity (MTT); assay type: cell-based; conditions: African green monkey, Vero cells
Experimental: Qualitative assessments of cytotoxicity were done visually by inspecting the cells in the primary screening assays. For the quantitative assays, cells were plated in 96-well plates at 1.0×10^4 per well. The next day the compounds were added at 0.78 to 100 μM in a final concentration of 1% (v/v) DMSO, and the cells were incubated for 24 hours under conditions identical to those employed for the viral replication inhibition assays. Mitochondrial toxicity was measured by incubating the cells with 0.25 mg/mL thiazolyl blue tetrazolium bromide (MTT, Sigma Aldrich Chemical Co.), the cultures were incubated for 60 min, metabolites were solubilized in acidic isopropanol, and absorbance was read at 570 nm. CC50 values were calculated by non-linear curve fitting using GraphPad Prism.
Quantitative toxicity measurements were conducted for all compounds that suppressed HSV replication by >2 log10 at 5 μM plus a number of compounds with lesser inhibitory activity for comparison. Toxicity was assessed by […]. Cells were plated in 96-well plates at 1.0×10^4 per well. The next day compound was added in concentrations ranging from 0.78 to 100 μM in a final concentration of 1% (v/v) DMSO. The cells were incubated for 24 h under conditions identical to those employed for the viral replication inhibition assays, and then mitochondrial activity was measured with the MTT assay (Sigma Aldrich) according to the manufacturer's instructions. Percent viability was determined for each compound concentration from the […], and then 50% cytotoxic concentrations (CC50) values were calculated by non-linear curve fitting using GraphPad Prism. Consistent with the subjective assessments of toxicity, all compounds selected for quantitative toxicity assessment had CC50 values≥50 μM under these conditions (Table 1).

Cc1cc(O)c(=O)c(O)cc1C(=O)c1ccc(-c2ccccc2)cc1 [Compound 118]
EC50 (HSV-1; read-out: HSV-1 EC50): 0.085 µM
log reduction at 5 µM (HSV-1; read-out: HSV-1 Log suppression 5 μM): 5.14
log reduction at 50 µM (HSV-1; read-out: HSV-1 Log suppression 50 μM): 6.27
CC50 at 24 h [1]: 21 µM
Non-P450 turn-over [2]: Potential
half-life at 1 μM ([2]; read-out: t ½): 34 min
ER ([2]; extraction ratio): 0.63
CLint scaled at 1 μM ([2]; mouse, liver microsomes): 154 mL/min/kg
predicted hepatic clearance at 1 μM ([2]; mouse, liver microsomes, read-out: CL ′hep): 57 mL/min/kg
interaction with ACV on HSV-2 replication and DNA accumulation (HSV-2 [3]): synergistically inhibit
anti-HSV SAR group, in words (HSV): highly inhibitory at much lower concentrations; also recorded: fully inhibitory at 5 μM
inhibition of wild-type HSV-2, in words (HSV-2 [4]; 5 μM, laboratory strain, 24 hr, FIG. 4): efficiently inhibited
EC50 (HSV-2 [4]; Human alphaherpesvirus 2, Vero, 24 h, read-out: HSV-2 EC50): 0.08 µM
log reduction at 5 µM (HSV-2 [4]; Human alphaherpesvirus 2, Vero, 24 h, read-out: HSV-2 Log suppression 5 μM): 3.22
log reduction at 50 µM (HSV-2 [4]; Human alphaherpesvirus 2, Vero, 24 h, read-out: HSV-2 Log suppression 50 μM): 5.56
CC50 at 24 h [5]: > 100 µM
